This note sets out measurements from patent publication US10350262B2, “MCJ agonists and uses therefor” (priority 2015, dated 2019).

Entries after “also recorded” stand apart in the source; their conditions may differ. No end group written: not given here.

Series [1] relates to mammary tumors in MCJ KO MMTV mice. Description: Doxorubicin and peptide treatment in vivo, mammary tumor size in MCJ KO MMTV mice. Also on record: species or system mouse. How it is done: (§1) FIG. 16A-B provides graphs showing response to MCJ agonists. […] Cells were harvested 2 days later and viable cells were counted. […] Mice were harvested at day 4. The size of a tumor over time was determined by caliper measurements, and is represented as a percentage relative to the initial size prior to the treatment. p<0.05 as determined by a paired t-test.
(§2) Mice. […] MCJ KO mice were crossed with the previously described MMTV-PyMT mice [see: Guy, C. T., et. al., Mol Cell Biol 12, 954-961 (1992)] to generate MCJ KO MMTV mice. Wildtype MMTV mice and MCJ KO MMTV mice were used for the experiments. All mice were housed under sterile conditions at the animal care facility at the University of Vermont. The procedures were approved by the University of Vermont Institutional Animal Care and Use Committee.
Doxorubicin and peptides treatment in vivo. MTV mice and MCJ KO MMTV mice were used to assay response to doxorubicin and MCJ peptides. The treatments were initiated around 2.5-3 months of age when the mammary tumor these mice develop reach 300 mm^3. […] Perpendicular tumor diameters were measured using a vernier scale caliper and tumor volume estimated using the formula for ellipsoid (width×high×length)/2. […]
The size of a tumor over time was determined by caliper measurements, and is represented as a percentage relative to the initial size prior to the treatment. p<0.05 as determined by a paired t-test. […]

In series [2] the test system is mammary tumors in MMTV mice. Description: Doxorubicin treatment in vivo, mammary tumor size in MMTV mice. More on the design: species or system mouse. Conditions: doxorubicin 2 mg/Kg i.p. every other day for two weeks, n=4.
Description: as §2
Doxorubicin and peptides treatment in vivo. MTV mice and MCJ KO MMTV mice were used to assay response to doxorubicin and MCJ peptides. The treatments were initiated around 2.5-3 months of age when the mammary tumor these mice develop reach 300 mm^3. Doxorubicin was administered intreperitoneal in PBS (100 μl per mouse) at a dose of 2 mg/Kg. TAT-N-MCJ-mts peptide (SEQ ID NO: 6) was administered at the time of doxorubicin by a subcutaneous injection in PBS (100 μl per mouse) at a dose of 10 mg/Kg. Administrations of doxorubicin and peptide were performed every other day for the indicated period of time. Perpendicular tumor diameters were measured using a vernier scale caliper and tumor volume estimated using the formula for ellipsoid (width×high×length)/2. […]
The size of a tumor over time was determined by caliper measurements, and is represented as a percentage relative to the initial size prior to the treatment. p<0.05 as determined by a paired t-test.

The next series deals with MCF7/ADR cells. Description: Viable cell count of MCF7/ADR cells (Trypan blue). To be noted: doxorubicin 3 μM, 2 days. In kind it is cell-based, human. How it is done:
(§3) FIG. 15A provides results of Western blot analysis for MCJ in MCF7 cells and MCF7/ADR (ADR) cells. Actin was used as loading control. […] Viable cells were counted 2 days later.
as §1
(§4) Cell Culture. MCF7 and MCF7/ADR cells were a kind gift from Dr. Ken Cowan (National Cancer Institute, Bethesda, Md.). MCF7/siMCJ cells were generated by stable transfection with a plasmid expressing a shRNA for MCJ (siMCJ) as described in Hatle, K. M., et al., Mol Cell Biol 27, 2952-2966 (2007). All cells were maintained at 37 C, 5% CO2 in RPMI-1640 (Life technologies, Inc., Gaithersburg, Md.) containing 5% FBS.
(§5) Cell count. Cells were trypsinized, washed, and resuspended in medium. Number of viable cells was measured by counting using Trypan blue dye to exclude dead cells (visualized as blue).
(§6) Doxorubicin and peptides treatment in vitro. Doxorubicin (Sigma-Aldrich) was used at 3 μM final concentration. The three different peptides described in the examples (SEQ ID NO: 2, 18 or 6) were resuspended at 10 mM stock concentration in PBS. The peptides were used a different concentration as indicated for each example (1, 10, or 50 μM). Cells were plated the day prior the treatment (18-20 h prior to the treatment). For treatments with peptides only, peptides were added to the plates at the indicated concentrations, and after 2 or 3 days (as indicated for each example) cells were trypsinized, resuspended, and counted. For the treatment with doxorubicin and peptides, cells were pretreated with the corresponding peptide for 4 h prior to adding doxorubicin.
MCF7/ADR cells were incubated (using standard procedures) for three days in media alone or in media plus three different MCJ based polypeptides each at a concentration of 50 μM in media. The cells of set one were incubated in media and served as a control set. The cells of set two were incubated in media that included a 50 μM concentration of a MCJ polypeptide without a targeting agent polypeptide. The amino acid sequence of the N-MCJ polypeptide without a targeting agent polypeptide was […] (SEQ ID NO:2). The cells of set three were incubated in media that included a 50 μM concentration of a TAT-N-MCJ polypeptide. The amino acid sequence of the TAT-N-MCJ polypeptide was: […] (SEQ ID NO:18). […]

The test system of another series is MCF7 cells. Briefly: Viable cell count of MCF7 cells (Trypan blue). To be noted: doxorubicin 3 μM. In kind it is cell-based, human.
Description: as §3, §4, §5, §6
MCF7 cells and MCF7/ADR cells were incubated (using standard procedures) for two days in media alone or in media that included different concentrations of the TAT-N-MCS-MTS polypeptide having the amino acid sequence set forth as: […]

For series [3] the following is noted: mouse. How it is done: MCF7/ADR cells were treated with doxorubicin, TAT-N-MCJ-mts peptide alone or in combination. […] Thus, at lower doses, MCJ agonists could overcome chemo-resistance of breast cancer cells in vitro. A study was also performed that tested the effect of the TAT-N-MCJ-mts peptide in combination with chemotherapy in vivo using the MMTV mammary tumor mouse model. […] Therefore MCJ KO MMTV mice were treated with doxorubicin alone or doxorubicin and the TAT-N-MCJ-mts peptide and followed tumor size.

For the molecule `COc1cccc2c1C(=O)c1c(O)c3c(c(O)c1C2=O)C[C@@](O)(C(=O)CO)C[C@@H]3O[C@H]1C[C@H](N)[C@H](O)[C@H](C)O1` [doxorubicin], the “tumor size over time” value in series [1] (doxorubicin 2 mg/Kg i.p. every other day for two weeks, n=4) is “continued growing or did not shrink; also recorded: less reduction in tumor size; also recorded: did not decrease, and continued to increase over time”; in series [2] it was “The size of the tumors in MMTV-Py mice was reduced; also recorded: tumor size in MMTV mice decreased over time”. Besides, the “tumor size (percentage relative to initial size)” value in series [1] (doxorubicin alone 2 mg/Kg i.p. at day 0, 2 and 3, harvested day 4, n=3) is “continued growing”. Moreover, the “expansion of cells (viable cells)” value in the series on MCF7/ADR cells is “no effect on the expansion of MCF7/ADR cells”. Moreover, the “effect on viable cells” value in the series on MCF7 cells (2 days) is recorded as “sensitive to doxorubicin”. For the same molecule, the cell death result with MCF7 cells (vs media alone) is listed as “significant level of cell death”.

For the molecule “YGKKRRQRRGMAARGVIAPVGESLRYAEYLGTRTWVPKGLKSP [TAT-N-MCJ-MTS]”, the “toxicity in vivo (abnormality in treated mice)” value in series [3] is listed as “no obvious abnormality was observed”.
